# Structures can show the parent of a compound that is named as a salt. Where two headings read alike, the source gives them in different places.
# Tests used:
# YAP/TAZ = YAP/TAZ nuclear localization (immunofluorescence, automated imaging) in IPF patient-derived lung fibroblasts; type: cell-based, human; settings: 10 μM, treated 2 hours prior to fixation; for Nuclear localization (% of total cells) IPF-1: patient sample IPF-1; for Nuclear localization (% of total cells) IPF-2: patient sample IPF-2; for Nuclear localization (% of total cells) IPF-3: patient sample IPF-3; for Nuclear localization (% of total cells) IPF-4: patient sample IPF-4
# Experimental: 27A. […] IPF patient-derived lung fibroblasts cells treated 2 hours prior to fixation with diverse dopaminergic agonists (10 μM). N=4 different patient samples. % nuclear localization of YAP/TAZ was determined using automated imaging software. Scale bar represents 100 μm. 27C. cAMP measured in IPF patient-derived fibroblasts treated for 20 minutes with DHX. N=3. 27E.
# (§1) ImmunofluorescenceMicroscopy: Cells were plated into 96 well plates (Corning 3603) in their specific growth media and allowed to attach (8 hours). Media was then exchanged for the indicated conditions for each experiment. Cells were fixed in 3.7% formalin (Sigma-Aldrich), permeabilized in 0.25% Triton X-100 (Sigma-Aldrich) and then blocked with 1% BSA for 1 h. Cells or tissue sections were incubated overnight with mouse monoclonal antibody against αSMA (Sigma-Aldrich F3777), and/or a rabbit monoclonal antibody against YAP/TAZ (Cell Signaling D24E4) diluted 1:200 in PBS with 1% BSA. Cells were then washed and exposed to flourescence-conjugated secondary antibodies (Invitrogen) diluted 1:1000 and DAPI (Thermo Fisher Scientific). Images were taken with a Cytation5 (BioTek) microscope. For scoring αSMA positive cells (FIG. 3b), an observer blinded to the treatment conditions counted αSMA-positive cells using a visual threshold for bright fibrous staining; a minimum of 200 cells was counted for each condition. YAP/TAZ localization was quantified (FIG. 2, 6, 8) using Gen5 (Biotek) software. Images were taken at 4× magnification of both DAPI and YAP/TAZ staining. […] Quantification of double positive (YAP/TAZ and αSMA) cells from lung tissue sections (FIG. 4d) was performed similarly; however separate thresholds were established for both YAP/TAZ and αSMA. A minimum of 4000 cells was quantified for each mouse.
# αSMA = αSMA intensity (fibroblast activation) in IPF patient-derived lung fibroblasts + TGFβ; type: cell-based, human; settings: 1 μM + TGFβ, treated for 72 hours; for activity at 1 µM: Homo sapiens, SMA
# Experimental: as §1
# [1] = patient sample IPF-1, read-out: αSMA intensity (% of DMSO control) IPF-1
# [2] = patient sample IPF-2, read-out: αSMA intensity (% of DMSO control) IPF-2
# [3] = patient sample IPF-3, read-out: αSMA intensity (% of DMSO control) IPF-3
# [4] = patient sample IPF-4, read-out: αSMA intensity (% of DMSO control) IPF-4
Compound,Nuclear localization (% of total cells) IPF-1 (YAP/TAZ),Nuclear localization (% of total cells) IPF-2 (YAP/TAZ),Nuclear localization (% of total cells) IPF-3 (YAP/TAZ),Nuclear localization (% of total cells) IPF-4 (YAP/TAZ),αSMA intensity (% of DMSO control) IPF-1 (αSMA; patient sample IPF-1),αSMA intensity (% of DMSO control) IPF-2 (αSMA; patient sample IPF-2),αSMA intensity (% of DMSO control) IPF-3 (αSMA; patient sample IPF-3),αSMA intensity (% of DMSO control) IPF-4 (αSMA; patient sample IPF-4),activity at 1 µM (αSMA; [1]),activity at 1 µM (αSMA; [2]),activity at 1 µM (αSMA; [3]),activity at 1 µM (αSMA; [4])
CCCN(CCc1ccccc1)C1CCc2c(O)cccc2C1.Cl (racemic) [(±)-2-(N-phenylethyl-N-propyl)amino-5-hydroxytetralin],68.85 % of total cells,60.86 % of total cells,68 % of total cells,56.552 % of total cells,65.43 % of DMSO control,52.77 % of DMSO control,60.4844 % of DMSO control,51.1 % of DMSO control,–,–,–,–
"CCCN1CCO[C@@H]2c3cc(O)ccc3OC[C@H]21.Cl (racemic) [(±)-PD 128,907•HCl]",60.13 % of total cells,49.54 % of total cells,78.48 % of total cells,60.66 % of total cells,83.68 % of DMSO control,85.45 % of DMSO control,94.2538 % of DMSO control,75.15 % of DMSO control,–,–,–,–
C=CCN1CCc2c(cc(O)c(O)c2Cl)C(c2ccccc2)C1 (racemic) [(±)-SKF-82958•HBr],29.15 % of total cells,38 % of total cells,38 % of total cells,12.29 % of total cells,–,–,–,–,11.8%,4.97%,2.43%,9.33%
"NCCc1cccc(O)c1 [3-Hydroxyphenethylamine•HCl, 3-Hydroxyphenethylamine]",48.96 % of total cells,56.92 % of total cells,69.25 % of total cells,58.37 % of total cells,–,–,–,–,88.6%,96.7%,82.6%,99.8%
"NCCc1ccc(O)cc1 [4-Hydroxyphenethylamine•HCl, 4-Hydroxyphenethylamine]",–,–,–,–,–,–,–,–,99.7%,93.4%,95.7%,88.3%
"Br.NC1CCc2cc(O)c(O)cc2C1 (stereo not drawn) [6,7-ADTN•HBr, 6,7-ADTN]",43.89 % of total cells,44 % of total cells,65.5 % of total cells,52.65 % of total cells,37.14 % of DMSO control,4.182 % of DMSO control,9.909 % of DMSO control,4.888 % of DMSO control,–,–,–,–
CCCN(CCC)[C@@H]1CCc2c(OC)cccc2[C@@H]1C.O=C(O)/C=C\C(=O)O [(+)-UH 232 maleate],61.9521 % of total cells,68 % of total cells,71.85 % of total cells,67.27 % of total cells,82.91 % of DMSO control,63.85 % of DMSO control,85.81 % of DMSO control,65.71 % of DMSO control,–,–,–,–
NC[C@@H]1O[C@H](C23CC4CC(CC(C4)C2)C3)Cc2c1ccc(O)c2O [A-77636•HCl•H2O],26.46 % of total cells,30.88 % of total cells,41.33 % of total cells,37.79 % of total cells,–,–,–,–,5.81%,0.719%,0.0677%,12.4%
C=CCN1CCc2nc(N)sc2CC1.Cl.Cl [B-HT 920•2HCl],75.68 % of total cells,46.9 % of total cells,64.79 % of total cells,76.24 % of total cells,74.98 % of DMSO control,58.97 % of DMSO control,70.12 % of DMSO control,54.23 % of DMSO control,–,–,–,–
"CC(C)C[C@H]1C(=O)N2CCC[C@H]2[C@]2(O)O[C@](NC(=O)[C@@H]3C=C4c5cccc6[nH]c(Br)c(c56)C[C@H]4N(C)C3)(C(C)C)C(=O)N12 [Bromocriptine mesylate, Bromocriptine]",–,–,–,–,–,–,–,–,54.1%,53.6%,61.1%,34.1%
CN1Cc2ccccc2C2c3cccc4[nH]cc(c34)CC21 (stereo not drawn) [CY 208-243],20.52 % of total cells,39.79 % of total cells,41.17 % of total cells,19.82 % of total cells,–,–,–,–,21%,2.28%,2.61%,9.64%
C=CCN1C[C@H](C(=O)N(CCCN(C)C)C(=O)NCC)C[C@@H]2c3cccc4[nH]cc(c34)C[C@H]21 [Cabergoline],–,–,–,–,–,–,–,–,76.9%,48.1%,77.1%,45.8%
"CCCN(CCC)CCc1ccc(O)c(O)c1 [Dipropyldopamine•HBr, Dipropyldopamine]",69.18 % of total cells,74.36 % of total cells,65.5 % of total cells,51.82 % of total cells,48.72 % of DMSO control,28.11 % of DMSO control,40.34 % of DMSO control,25.86 % of DMSO control,–,–,–,–
"CCCN1CCC[C@@H]2Cc3nc(N)ncc3C[C@H]21.Cl.Cl [LY-163,502•2HCl]",73.37 % of total cells,60.97 % of total cells,59.43 % of total cells,66.49 % of total cells,88.99 % of DMSO control,72.86 % of DMSO control,75.3 % of DMSO control,86.7894 % of DMSO control,–,–,–,–
"CN1C[C@@H](NS(=O)(=O)N(C)C)C[C@@H]2c3cccc4c3c(cn4C)C[C@H]21 [Mesulergine•HCl, Mesulergine]",–,–,–,–,–,–,–,–,35.5%,23.3%,40%,19.8%
"CCCN1C[C@H](CSC)C[C@@H]2c3cccc4[nH]cc(c34)C[C@H]21 [Pergolide mesylate, Pergolide]",–,–,–,–,–,–,–,–,65%,51.6%,63.6%,48.1%
"c1cnc(N2CCN(Cc3ccc4c(c3)OCO4)CC2)nc1 [Piribedil•2HCl, Piribedil]",–,–,–,–,–,–,–,–,70.4%,61.5%,71.5%,41.2%
"CCCN[C@H]1CCc2nc(N)sc2C1 [Pramipexole Dihydrochloride Monohydrate, Pramipexole]",–,–,–,–,–,–,–,–,87.6%,73.2%,82.8%,89.9%
"CCCN(CCC)CCc1cccc2c1CC(=O)N2 [Ropinirole HCl, Ropinirole]",–,–,–,–,–,–,–,–,72.2%,53.5%,–,62%
Oc1cc2c(cc1O)[C@@H](c1ccccc1)CNCC2 [SKF 38393•HBr],–,–,–,–,–,–,–,–,37.1%,26.8%,31.2%,20.8%

# From patent US20240252463A1, “METHODS OF TREATING FIBROTIC PATHOLOGIES” (Mayo Foundation for Medical Education and Research, priority 2018, published 2024)
